Usually melting point stands for the temperature of the solid-liquid transition. A word on the IC50: it is the concentration at which inhibition is half-maximal.

One series has as its target T1, CCR-5 receptor (Homo sapiens, UniProt P51681).
T1 construct: membranes prepared from CCR-5/L 1.2 cells; expressed in transfected cells; host or cells: L1.2 cells (CCR-5/L 1.2), membrane preparation
Briefly: 125I-gp120/sCD4/CCR-5 binding assay (CCR-5 receptor binding assay). Conditions: for IC50: block of 125I-gp120 (HIV-1 JR-FL)/sCD4 binding to membranes from CCR-5/L 1.2 cells; for inhibition at 10 µM / % Inhib. @ 10 μM: 10 μM compound, 125I-gp120/sCD4 binding to membranes from CCR-5/L 1.2 cells; for inhibition at 10 µM: read-out: % Inhib. @ 10 μM. On the procedure: The ^125I-gp120/sCD4/CCR-5 binding assay is carried out similarly as described in Wu et al., Nature, 1996;384:179-183. Briefly, the envelope gp120 protein derived from HIV-1 JR-FL (Trkola et al., Nature, 1996;384:184-186), a M-tropic strain, is iodinated using solid phase lactoperoxidase to a specific activity of 20 μCi/μg. For each binding reaction (in a final volume of 100 μL binding buffer [50 mM HEPES, pH 7.5, 1 mM CaCl2, 5 mM MgCl2, and 0.5% BSA]), 25 μL (2.5 μg) of membranes prepared from CCR-5/L 1.2 cells are mixed with 25 μL (3 nM) sCD4, followed by 25 μL (0.1 nM) radiolabeled gp120 in the presence or absence of 25 μL compound dissolved in DMSO (final concentration of DMSO 0.5%). The reactions are incubated at room temperature for 45 to 60 minutes and stopped by transferring the mixture to GFB filter plates, which are then washed 3 to 4 times with binding buffer containing 0.5 M NaCl. The plates are dried and MicroScint scintillation fluid is added before counting.

T1 sequence (P51681 whole entry): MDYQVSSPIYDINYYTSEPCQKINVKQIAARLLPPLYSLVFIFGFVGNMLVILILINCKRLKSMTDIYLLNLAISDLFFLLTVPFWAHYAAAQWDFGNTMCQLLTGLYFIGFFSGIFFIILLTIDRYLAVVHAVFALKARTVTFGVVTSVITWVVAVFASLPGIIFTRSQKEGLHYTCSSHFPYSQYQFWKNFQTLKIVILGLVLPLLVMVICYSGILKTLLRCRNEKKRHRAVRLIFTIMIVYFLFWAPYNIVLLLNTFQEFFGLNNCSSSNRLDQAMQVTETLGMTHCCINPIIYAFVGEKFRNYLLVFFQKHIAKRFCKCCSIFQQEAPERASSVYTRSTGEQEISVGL

For the compound `O=C1/C(=C\c2cccc(F)c2)SC(c2cccc(F)c2)N1CCCN1CCOCC1` (centres unmarked) [Compound 1, 5-(3-Fluorobenzylidene)-2-(3-fluorophenyl)-3-(3-morpholin-4-ylpropyl)-thiazolidin-4-one], the melting point was in the range of 149 to 150 °C. In addition, the IC50 on CCR-5 receptor stood at 10.8 µM.
For `O=C1/C(=C\c2cccc(Cl)c2)SC(c2cccc(Cl)c2)N1CCCN1CCCCC1` (centres unmarked) [Compound 2, 5-(3-Chlorobenzylidene)-2-(3-chlorophenyl)-3-(3-piperidin-1-yl-propyl)-thiazolidin-4-one] the same measures were 137 to 139 °C and 0.25 µM.
Take `O=C1C(=Cc2cccc(F)c2)SC(c2cccc(C(F)(F)F)c2)N1CCCN1CCCCC1` (centres unmarked) [Compound 25, 5-(3-Fluoro-benzylidene)-3-(3-piperidin-1-yl-propyl)-2-(3-trifluoromethyl-phenyl)-thiazolidin-4-one]: the inhibition at 10 µM on CCR-5 receptor was found to be 50.7%.
`O=C1C(=Cc2cccc(F)c2)SC(c2cccc(F)c2)N1CCCN1CCN(c2ccccn2)CC1` (centres unmarked) [Compound 26, 5-(3-Fluoro-benzylidene)-2-(3-fluoro-phenyl)-3-[3-(4-pyridin-2-yl-piperazin-1-yl)-propyl]-thiazolidin-4-one]: the inhibition at 10 µM on CCR-5 receptor was 75.3%.
For `O=C1C(=Cc2cccc(F)c2)SC(c2cccc(F)c2)N1CCCN1CCN(C2CCCCC2)CC1` (centres unmarked) [Compound 27, 3-[3-(4-Cyclohexyl-piperazin-1-yl)-propyl]-5-(3-fluoro-benzylidene)-2-(3-fluoro-phenyl)-thiazolidin-4-one], on CCR-5 receptor, the inhibition at 10 µM came to 57.6%.
Regarding `O=C1C(=Cc2cccc(F)c2)SC(c2cccc(Cl)c2)N1CCCN1CCN(c2ccccn2)CC1` (centres unmarked) [Compound 28, 2-(3-Chloro-phenyl)-5-(3-fluoro-benzylidene)-3-[3-(4-pyridin-2-yl-piperazin-1-yl)-propy1]-thiazolidin-4-one], the “% Inhib. @ 10 μM” value on CCR-5 receptor stood at 78.8%.
Consider `O=C1C(=Cc2cccc(F)c2)SC(c2cccc(Cl)c2)N1CCCN1CCN(c2ncccn2)CC1` (centres unmarked) [Compound 29, 2-(3-Chloro-phenyl)-5-(3-fluoro-benzylidene)-3-[3-(4-pyrimidin-2-yl-piperazin-1-yl)-propyl]-thiazolidin-4-one], for which the inhibition at 10 µM at CCR-5 receptor turned out to be 86.8%.
Turning to `O=C1C(=Cc2cccc(C(F)(F)F)c2)SC(c2cccc(Cl)c2)N1CCCN1CCN(c2ccccn2)CC1` (centres unmarked) [Compound 30, 2-(3-Chloro-phenyl)-3-[3-(4-pyridin-2-yl-piperazin-1-yl)-propyl]-5-(3-trifluoromethyl-benzylidene)-thiazolidin-4-one], the inhibition at 10 µM on CCR-5 receptor came to 61.7%.
On the same count and under the same terms, for `O=C1C(=Cc2cccc(C(F)(F)F)c2)SC(c2cccc(Cl)c2)N1CCCN1CCCCC1` (centres unmarked) [Compound 31, 2-(3-Chloro-phenyl)-3-(3-piperidin-1-yl-propyl)-5-(3-trifluoromethyl-benzylidene)-thiazolidin-4-one] the value was 54.4%.
Turning to `O=C1C(=Cc2cccc(C(F)(F)F)c2)SC(c2cccc(Cl)c2)N1CCCN1CCN(c2ncccn2)CC1` (centres unmarked) [Compound 32], the “% Inhib. @ 10 μM” value at CCR-5 receptor is on record as 81.8%.
As to `O=C1C(=Cc2ccccc2)SC(c2cccc(C(F)(F)F)c2)N1CCCN1CCN(c2ccccn2)CC1` (centres unmarked) [Compound 33, 5-Benzylidene-3-[3-(4-pyridin-2-yl-piperazin-1-yl)-propyl]-2-(3-trifluoromethyl-phenyl)-thiazolidin-4-one], the inhibition at 10 µM on CCR-5 receptor is 62%.
Still for that read-out and setting: for `O=C1C(=Cc2ccccc2)SC(c2cccc(C(F)(F)F)c2)N1CCCN1CCN(c2ncccn2)CC1` (centres unmarked) [Compound 34, 5-Benzylidene-3-[3-(4-pyrimidin-2-yl-piperazin-1-yl)-propyl]-2-(3-trifluoromethyl-phenyl)-thiazolidin-4-one] the value was 79.2%; for `O=C1C(=Cc2ccccc2)SC(c2cccc(F)c2)N1CCCN1CCN(c2ccccn2)CC1` (centres unmarked) [Compound 35, 5-Benzylidene-2-(3-fluoro-phenyl)-3-[3-(4-pyridin-2-yl-piperazin-1-yl)-propyl]-thiazolidin-4-one], 76.2%.
In the case of `O=C1C(=Cc2ccccc2)SC(c2cccc(F)c2)N1CCCN1CCCCC1` (centres unmarked) [Compound 36, 5-Benzylidene-2-(3-fluoro-phenyl)-3-(3-piperidin-1-yl-propyl)-thiazolidin-4-one], at CCR-5 receptor, the inhibition at 10 µM is 63.3%.
For `O=C1C(=Cc2ccccc2)SC(c2cccc(F)c2)N1CCCN1CCC(N2CCCCC2)CC1` (centres unmarked) [Compound 37, 5-Benzylidene-3-(3-[1,4′]bipiperidinyl-1′-yl-propyl)-2-(3-fluoro-phenyl)-thiazolidin-4-one], on CCR-5 receptor, the inhibition at 10 µM was 56.6%.
On the same count and under the same terms, for `O=C1C(=Cc2ccccc2)SC(c2cccc(F)c2)N1CCCN1CCN(C2CCCCC2)CC1` (centres unmarked) [Compound 38, 5-Benzylidene-3-[3-(4-cyclohexyl-piperazin-1-yl)-propyl]-2-(3-fluoro-phenyl)-thiazolidin-4-one] the value was 54.4%.
Turning to `O=C1C(=Cc2ccccc2)SC(c2cccc([N+](=O)[O-])c2)N1CCCN1CCN(c2ncccn2)CC1` (centres unmarked) [Compound 39], the “% Inhib. @ 10 μM” value on CCR-5 receptor was 70.1%.
For the compound `O=C1C(=Cc2ccccc2)SC(c2cccc(Cl)c2)N1CCCN1CCN(c2ccccn2)CC1` (centres unmarked) [Compound 40, 5-Benzylidene-2-(3-chloro-phenyl)-3-[3-(4-pyridin-2-yl-piperazin-1-yl)-propyl]-thiazolidin-4-one], the inhibition at 10 µM on CCR-5 receptor came to 84.3%.
Same read-out and setting: for `O=C1C(=Cc2ccccc2)SC(c2cccc(Cl)c2)N1CCCN1CCC(N2CCCCC2)CC1` (centres unmarked) [Compound 41, 5-Benzylidene-3-(3-[1,4′]bipiperidinyl-1′-yl-propyl)-2-(3-chloro-phenyl)-thiazolidin-4-one] the value was 62.4%; for `O=C1C(=Cc2ccccc2)SC(c2cccc(Cl)c2)N1CCCN1CCOCC1` (centres unmarked) [Compound 42, 5-Benzylidene-2-(3-chloro-phenyl)-3-(3-morpholin-4-yl-propyl)-thiazolidin-4-one], 64.7%; for `O=C1C(=Cc2ccccc2)SC(c2cccc(Cl)c2)N1CCCN1CCN(c2ncccn2)CC1` (centres unmarked) [Compound 43, 5-Benzylidene-2-(3-chloro-phenyl)-3-[3-(4-pyrimidin-2-yl-piperazin-1-yl)-propyl]-thiazolidin-4-one], 95%.
Still for that read-out and setting: for `O=C1C(=Cc2ccccc2)SC(c2cccc(Cl)c2)N1CCCN1CCN(C2CCCCC2)CC1` (centres unmarked) [Compound 44, 5-Benzylidene-2-(3-chloro-phenyl)-3-[3-(4-cyclohexyl-piperazin-1-yl)-propyl]-thiazolidin-4-one] the value was 54.5%; for `O=C1C(=Cc2cccc(Cl)c2)SC(c2cccc(C(F)(F)F)c2)N1CCCN1CCN(c2ncccn2)CC1` (centres unmarked) [Compound 45, 5-(3-Chloro-benzylidene)-3-[3-(4-pyrimidin-2-yl-piperazin-1-yl)-propyl]-2-(3-trifluoromethyl-phenyl)-thiazolidin-4-one], 57.7%.
As to `O=C1C(=Cc2cccc(Cl)c2)SC(c2cccc(C(F)(F)F)c2)N1CCCN1CCN(C2CCCCC2)CC1` (centres unmarked) [Compound 46, 5-(3-Chloro-benzylidene)-3-[3-(4-cyclohexyl-piperazin-1-yl)-propyl]-2-(3-rifluoromethyl-phenyl)-thiazolidin-4-one], the “% Inhib. @ 10 μM” value at CCR-5 receptor came out at 51.1%.
On the same count and under the same terms, next, `O=C1C(=Cc2cccc(Cl)c2)SC(c2cccc(F)c2)N1CCCN1CCN(c2ccccn2)CC1` (centres unmarked) [Compound 47, 5-(3-Chloro-benzylidene)-2-(3-fluoro-phenyl)-3-[3-(4-pyridin-2-yl-piperazin-1-yl)-propyl]-thiazolidin-4-ne]: 75.6%.
As for `O=C1C(=Cc2cccc(Cl)c2)SC(c2cccc(F)c2)N1CCCN1CCN(c2ncccn2)CC1` (centres unmarked) [Compound 48, 5-(3-Chloro-benzylidene)-2-(3-fluoro-phenyl)-3-[3-(4-pyrimidin-2-yl-piperazin-1-yl)-propyl]-thiazolidin-4-one], the inhibition at 10 µM at CCR-5 receptor was determined as 84.7%.
Regarding `O=C1C(=Cc2cccc(Cl)c2)SC(c2cccc(F)c2)N1CCCN1CCN(C2CCCCC2)CC1` (centres unmarked) [Compound 49, 5-(3-Chloro-henzylidene)-3-[3-(4-cyclohexyl-piperazin-1-yl)-propyl]-2-(3-fluoro-phenyl)-thiazolidin-4-one], the “% Inhib. @ 10 μM” value on CCR-5 receptor stood at 54.0%.
Consider `O=C1C(=Cc2cccc(Cl)c2)SC(c2cccc(Cl)c2)N1CCCN1CCN(c2ccccn2)CC1` (centres unmarked) [Compound 50, 5-(3-Chloro-benzylidene)-2-(3-chloro-phenyl)-3-[3-(4-pyridin-2-yl-piperazin-1-yl)-propyl]-thiazolidin-4-one], for which the inhibition at 10 µM on CCR-5 receptor is 77.8%.
On to `O=C1C(=Cc2cccc(Cl)c2)SC(c2cccc(Cl)c2)N1CCCN1CCN(c2ncccn2)CC1` (centres unmarked) [Compound 51, 5-(3-Chloro-benzylidene)-2-(3-chloro-phenyl)-3-[3-(4-pyrimidin-2-yl-piperazin-1-yl)-propyl]-thiazolidin-4-one], for which the inhibition at 10 µM at CCR-5 receptor was found to be 84%.
On to `O=C1C(=Cc2cccc(Cl)c2)SC(c2cccc(Cl)c2)N1CCCN1CCN(C2CCCCC2)CC1` (centres unmarked) [Compound 52, 5-(3-Chloro-benzylidene)-2-(3-chloro-phenyl)-3-[3-(4-cyclohexyl-piperazin-1-yl)-propyl]-thiazolidin-4-one], for which the inhibition at 10 µM on CCR-5 receptor is 43.7%.
